Tests used:
DENV-2 strain 16681 = assay: Tetravalent RT-qPCR assay Protocol A, serotype 2; format: cell-based; conditions: Dengue virus, DENV2, 72 h; RT-qPCR serotype 2 16681, Vero cells, day 3
Experimental: (§1) The antiviral activity of the compounds of the invention was tested against DENV-1 strain TC974#666 (NCPV; Table 6), DENV-2 strain 16681 (Table 7), DENV-3 strain H87 (NCPV; Table 8) and DENV-4 strains H241 (NCPV; Table 9) in a RT-qPCR assay. Therefore, Vero cells were infected with either DENV-1, or -2, or -3, or -4 in the presence or absence of test compounds. At day 3 post-infection, the cells were lysed and cell lysates were used to prepare cDNA of both a viral target (the 3′UTR of DENV; table 2) and a cellular reference gene (β-actin, table 2). Subsequently, a duplex real time PCR was performed on a Lightcycler480 instrument. The generated Cp value is inversely proportional to the amount of RNA expression of these targets. Inhibition of DENV replication by a test compound result in a shift of Cp's for the 3′UTR gene. On the other hand, if a test compound is toxic to the cells, a similar effect on β-actin expression will be observed. The comparative ΔΔCp method is used to calculate EC50, which is based on the relative gene expression of the target gene (3′UTR) normalized with the cellular housekeeping gene (β-actin).
(§2) The culture medium consisted of minimal essential medium supplemented with 2% of heat-inactivated fetal calf serum, 0.04% gentamycin (50 mg/mL) and 2 mM of L-glutamine. Vero cells, obtained from ECACC, were suspended in culture medium and 75 μL/well was added in 96-well plates (10000 cells/well), which already contain the antiviral compounds. Typically, these plates contain a 4-fold serial dilution of 9 dilution steps of the test compound at 200 times the final concentration in 100% DMSO (500 nL; final concentration range: 25 μM-0.00038 μM). In addition, each plate contains wells which are assigned as virus controls (containing cells and virus in the absence of compound) and cell controls (containing cells in the absence of virus and compound). Once the cells were added in the plates, the plates were incubated in a fully humidified incubator (37° C., 5% CO2) until the next day. Then, DENV-1 strain TC974#666 at an MOI of 0.6, DENV-2 strain 16681 at an MOI of 0.01, DENV-3 strain H87 at an MOI of 1.0 and DENV-4 strains H241 at an MOI of 0.2 and SG/06K2270DK1/2005 at an MOI of 0.16, were added. Therefore, 25 μL of virus suspension was added to all the wells containing test compound and to the wells assigned as virus control. In parallel, 25 μL of culture medium was added to the cell controls. Next, the plates were incubated for 3 days in a fully humidified incubator (37° C., 5% CO2). After 3 days, the supernatant was removed from the wells and the cells were washed twice with ice-cold PBS (˜100 μL). The cell pellets within the 96-well plates were stored at −80° C. for at least 1 day. Next, RNA was extracted using the Cells-to-CT™ lysis kit, according to the manufacture's guideline (Applied Biosystems). The cell lysates can be stored at −80° C. or immediately used in the reverse transcription step.
(§3) In preparation of the reverse transcription step, mix A (table 3A) was prepared and 7.57 μL/well was dispensed in a 96-well plate. After addition of 5 μL of the cell lysates, a five minute denaturation step at 75° C. was performed (table 3B). Afterwards, 7.43 μL of mix B was added (table 3C) and the reverse transcription step was initiated (table 3D) to generate cDNA.
(§4) Finally, a RT-qPCR mix was prepared, mix C (table 4A), dispensed in 96-well LightCycler qPCR plates to which 3 μL of cDNA was added and the qPCR was performed according to the conditions in table 4B on a LightCycler 480. Using the LightCycler software and an in-house LIMS system, dose response curves for each compound were calculated and the half maximal effective concentration (EC50) and the half maximal cytotoxic concentration (CC50) were determined.

DENV-2 16681 strain = assay: DENV-2 antiviral assay (eGFP-labeled virus in Vero cells); format: cell-based, Dengue virus; conditions: DENV-2 16681 eGFP, MOI 0.5, 3 days
How it was run: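 Vero cells were pre-plated with compound overnight, then infected with eGFP-labeled DENV-2 16681 at MOI 0.5 and incubated 3 days at 37 °C. eGFP fluorescence read by automated microscopy; 9-point 4-fold dilutions (25 μM–0.00038 μM final) in quadruplicate, EC50 by linear interpolation versus virus and cell controls.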

DENV-1 strain TC974#666 = assay: Tetravalent RT-qPCR assay Protocol A, serotype 1; format: cell-based; conditions: Dengue virus, DENV1, 72 h; RT-qPCR serotype 1 TC974#666, Vero cells, day 3
Experimental: as §1, §2, §3, §4

in vitro = format: cell-based; conditions: African green monkey, CC50
Experimental: as §1, §2, §4

DENV-3 strain H87 = assay: Tetravalent RT-qPCR assay Protocol A, serotype 3; format: cell-based; conditions: Dengue virus, DENV3, 72 h; RT-qPCR serotype 3 H87, Vero cells, day 3
Experimental: as §1, §2, §3, §4

Vero cells = assay: in vitro; format: cell-based; conditions: African green monkey
How it was run: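 On the same plates after eGFP read-out, resazurin was added and cells incubated a further 5 h at 37 °C, 5% CO2; resorufin fluorescence read with 530 nm excitation. CC50 is the concentration halving resazurin conversion versus cell control; SI = CC50/EC50.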

DENV-4 strains H241 = assay: Tetravalent RT-qPCR assay Protocol A, serotype 4; format: cell-based; conditions: Dengue virus, DENV4, 72 h; RT-qPCR serotype 4 H241, Vero cells, day 3
Experimental: as §1, §2, §3, §4

COc1cc(NC(C(=O)c2c[nH]c3cc(Cl)ccc23)c2ccc(F)cc2OC)cc(S(C)(=O)=O)c1 (single isomer, unassigned) [Enantiomer 4A, 1-(6-chloro-1H-indol-3-yl)-2-(4-fluoro-2-methoxyphenyl)-2-((3-methoxy-5-(methylsulfonyl)phenyl)amino)ethanone]
EC50 (DENV-2 strain 16681): 0.377 nM
EC50 (DENV-2 16681 strain; listed as 4A*): 0.5 nM
EC50 (DENV-1 strain TC974#666): 4.22 nM
CC50 at 3 days (in vitro): 3590 nM
EC50 (DENV-3 strain H87): 55.3 nM
CC50 (Vero cells): 4400 nM
EC50 (DENV-4 strains H241): 131 nM

COc1cc(NC(C(=O)c2c[nH]c3c(C)cc(F)cc23)c2ccc(F)cc2OC)cc(S(C)(=O)=O)c1 (single isomer, unassigned) [Enantiomer 8A, 2-(4-fluoro-2-methoxyphenyl)-1-(5-fluoro-7-methyl-1H-indol-3-yl)-2-((3-methoxy-5-(methylsulfonyl)phenyl)amino)ethanone]
EC50 (DENV-2 strain 16681): 1.27 nM
EC50 (DENV-2 16681 strain; listed as 8A*): 1 nM
EC50 (DENV-1 strain TC974#666): 6.83 nM
CC50 at 3 days (in vitro): 4400 nM
EC50 (DENV-3 strain H87): 82.1 nM
CC50 (Vero cells): 5100 nM
EC50 (DENV-4 strains H241): 248 nM

COc1cc(NC(C(=O)c2c[nH]c3ccc(OC(F)(F)F)cc23)c2ccc(F)cc2OC)cc(S(C)(=O)=O)c1 (single isomer, unassigned) [Enantiomer 18A, 2-(4-fluoro-2-methoxyphenyl)-2-((3-methoxy-5-(methylsulfonyl)phenyl)amino)-1-(5-(trifluoromethoxy)-1H-indol-3-yl)ethanone]
EC50 (DENV-2 strain 16681): 0.14 nM
EC50 (DENV-2 16681 strain; listed as 18A*): 0.086 nM
EC50 (DENV-1 strain TC974#666): 0.357 nM
CC50 at 3 days (in vitro): 3010 nM
EC50 (DENV-3 strain H87): 7.54 nM
CC50 (Vero cells): 3100 nM
EC50 (DENV-4 strains H241): 18.2 nM

COc1cc(NC(C(=O)c2c[nH]c3c(F)cc(C)cc23)c2ccc(F)cc2OC)cc(S(C)(=O)=O)c1 (single isomer, unassigned) [Enantiomer 6A, 2-(4-fluoro-2-methoxyphenyl)-1-(7-fluoro-5-methyl-1H-indol-3-yl)-2-((3-methoxy-5-(methylsulfonyl)phenyl)amino)ethanone]
EC50 (DENV-2 strain 16681): 3.48 nM
EC50 (DENV-2 16681 strain; listed as 6A*): 2.7 nM
EC50 (DENV-1 strain TC974#666): 9.7 nM
CC50 at 3 days (in vitro): 4610 nM
EC50 (DENV-3 strain H87): 123 nM
CC50 (Vero cells): 5000 nM
EC50 (DENV-4 strains H241): 239 nM

COc1cc(NC(C(=O)c2c[nH]c3c(C)c(Cl)ccc23)c2ccc(F)cc2OC)cc(S(C)(=O)=O)c1 (single isomer, unassigned) [Enantiomer 3A, 1-(6-chloro-7-methyl-1H-indol-3-yl)-2-(4-fluoro-2-methoxyphenyl)-2-((3-methoxy-5-(methylsulfonyl)phenyl)amino)ethanone]
EC50 (DENV-2 strain 16681): 0.285 nM
EC50 (DENV-2 16681 strain; listed as 3A*): 0.3 nM
EC50 (DENV-1 strain TC974#666): 7.18 nM
CC50 at 3 days (in vitro): 3910 nM
EC50 (DENV-3 strain H87): 58.6 nM
CC50 (Vero cells): 4800 nM
EC50 (DENV-4 strains H241): 121 nM

COc1cc(NC(C(=O)c2c[nH]c3cc(F)c(C)cc23)c2ccc(F)cc2OC)cc(S(C)(=O)=O)c1 (single isomer, unassigned) [Enantiomer 14A, 2-(4-fluoro-2-methoxyphenyl)-1-(6-fluoro-5-methyl-1H-indol-3-yl)-2-((3-methoxy-5-(methylsulfonyl)phenyl)amino)ethanone]
EC50 (DENV-2 strain 16681): 0.567 nM
EC50 (DENV-2 16681 strain; listed as 14A*): 0.44 nM
EC50 (DENV-1 strain TC974#666): 1.4 nM
CC50 at 3 days (in vitro): 2420 nM
EC50 (DENV-3 strain H87): 13.1 nM
CC50 (Vero cells): 3400 nM
EC50 (DENV-4 strains H241): 69.4 nM

COc1cc(NC(C(=O)c2c[nH]c3ccc(C(F)(F)F)cc23)c2ccc(F)cc2OC)cc(S(C)(=O)=O)c1 (single isomer, unassigned) [Enantiomer 17B, 2-(4-fluoro-2-methoxyphenyl)-2-((3-methoxy-5-(methylsulfonyl)phenyl)amino)-1-(5-(trifluoromethyl)-1H-indol-3-yl)ethanone]
EC50 (DENV-2 strain 16681): 0.0921 nM
EC50 (DENV-2 16681 strain; listed as 17B*): 0.2 nM
EC50 (DENV-1 strain TC974#666): 0.478 nM
CC50 at 3 days (in vitro): 1610 nM
EC50 (DENV-3 strain H87): 7.28 nM
CC50 (Vero cells): 3600 nM
EC50 (DENV-4 strains H241): 21.3 nM

COc1cc(NC(C(=O)c2c[nH]c3cc(OC)c(Cl)cc23)c2ccc(F)cc2OC)cc(S(C)(=O)=O)c1 (single isomer, unassigned) [Enantiomer 16A, 1-(5-chloro-6-methoxy-1H-indol-3-yl)-2-(4-fluoro-2-methoxyphenyl)-2-((3-methoxy-5-(methylsulfonyl)phenyl)amino)ethanone]
EC50 (DENV-2 strain 16681): 0.188 nM
EC50 (DENV-2 16681 strain; listed as 16A*): 0.42 nM
EC50 (DENV-1 strain TC974#666): 3.26 nM
CC50 at 3 days (in vitro): 3170 nM
EC50 (DENV-3 strain H87): 25.4 nM
CC50 (Vero cells): 3700 nM
EC50 (DENV-4 strains H241): 80.1 nM

COc1cc(NC(C(=O)c2c[nH]c3cc(F)c(F)cc23)c2ccc(F)cc2OC)cc(S(C)(=O)=O)c1 (single isomer, unassigned) [Enantiomer 7A, 1-(5,6-difluoro-1H-indol-3-yl)-2-(4-fluoro-2-methoxyphenyl)-2-((3-methoxy-5-(methylsulfonyl)phenyl)amino)ethanone]
EC50 (DENV-2 strain 16681): 0.525 nM
EC50 (DENV-2 16681 strain; listed as 7A*): 0.76 nM
EC50 (DENV-1 strain TC974#666): 3.7 nM
CC50 at 3 days (in vitro): 3870 nM
EC50 (DENV-3 strain H87): 61.6 nM
CC50 (Vero cells): 4400 nM
EC50 (DENV-4 strains H241): 142 nM

COc1cc(NC(C(=O)c2c[nH]c3ccc(C)cc23)c2ccc(F)cc2OC)cc(S(C)(=O)=O)c1 (single isomer, unassigned) [Enantiomer 15A, 2-(4-fluoro-2-methoxyphenyl)-2-((3-methoxy-5-(methylsulfonyl)phenyl)amino)-1-(5-methyl-1H-indol-3-yl)ethanone]
EC50 (DENV-2 strain 16681): 1.02 nM
EC50 (DENV-2 16681 strain; listed as 15A*): 0.8 nM
EC50 (DENV-1 strain TC974#666): 3.51 nM
CC50 at 3 days (in vitro): > 2500 nM
EC50 (DENV-3 strain H87): 22.1 nM
CC50 (Vero cells): 5400 nM
EC50 (DENV-4 strains H241): 91 nM

COc1cc(NC(C(=O)c2c[nH]c3cc(C)c(F)cc23)c2ccc(F)cc2OC)cc(S(C)(=O)=O)c1 (single isomer, unassigned) [Enantiomer 9A, 2-(4-fluoro-2-methoxyphenyl)-1-(5-fluoro-6-methyl-1H-indol-3-yl)-2-((3-methoxy-5-(methylsulfonyl)phenyl)amino)ethanone]
EC50 (DENV-2 strain 16681): 1.14 nM
EC50 (DENV-2 16681 strain; listed as 9A*): 1.1 nM
EC50 (DENV-1 strain TC974#666): 10 nM
CC50 at 3 days (in vitro): 4040 nM
EC50 (DENV-3 strain H87): 104 nM
CC50 (Vero cells): 4800 nM
EC50 (DENV-4 strains H241): 241 nM
